# Patent US10392383B2, “3-(1H-benzo[d]imidazol-2-yl)-1H-pyrazolo[4,3-b]pyridines and therapeutic uses thereof” (Samumed, LLC, priority 2015, dated 2019)
# pEC50: −log10 of the molar value.
# Tests used:
# Type in all cases: cell-based
# [1] = tested on: Wnt activity (Sp5-Luc reporter, Wnt-responsive promoter) in SW480 colon carcinoma cells; assay: Wnt activity screening assay: Sp5-Luc reporter gene assay in SW480 cells; details: Homo sapiens; for pEC50: overnight incubation, 10-point curve starting from 10 μM
# In short: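 Luminescence read-out (BrightGlo) from stable Sp5-Luc SW480 cells, normalized to DMSO-only wells. Cells were treated overnight at 37° C in 1% FBS medium across a 1:3, 10-point series starting at 10 μM. EC50 from variable-slope four-parameter regression; percent inhibition at 10 μM given where EC50 >10 μM.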
# SW480 colon cancer cells = assay: Cell viability assay (CellTiter-Blue) in SW480 cells; details: Homo sapiens, 96 h, four days; for pEC50: CellTiter-Blue, 10 μM to 0.0045 μM
# In short: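 SW480 colon cancer cells (~2×10^3/well) exposed to 8-point 1:3 dilutions from 10 μM to 0.0045 μM for four days at 37 °C/5% CO2. Viability read by resazurin (CellTiter-Blue) fluorescence after ~3 h, Ex 560/Em 590 nm. EC50 from non-linear regression; percent inhibition at 10 μM given when EC50 >10 μM.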
# IL-6 (THP-1 cells) = assay: IL-6 inhibition in LPS-stimulated THP-1 monocytes (HTRF); details: Homo sapiens, IL-6 HTRF; for pEC50: 500 ng/mL LPS, Table 6; for inhibition at 10 µM: LPS, Table 6, read-out: percent inhibition at 10 μM (given in parentheses for EC50 >10 μM)
# In short: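 THP-1 cells in 1% FBS pre-incubated 2 h with compound (10-point 1:3 series from 10 μM, 0.1% DMSO), then stimulated with 500 ng/mL LPS for 22 h at 37 °C. IL-6 measured by HTRF 665/620 ratio, normalized to DMSO; EC50 by four-parameter fit, or % inhibition at 10 μM when EC50 >10 μM.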
# [2] = 10 μM, read-out: percent inhibition at 10 μM (given for EC50 of >10 μM)
pEC50 [1],pEC50 (SW480 colon cancer cells),pEC50 (IL-6 (THP-1 cells)),SMILES,"inhibition at 10 µM [1, 2] [%]",inhibition at 10 µM (SW480 colon cancer cells; [2]) [%],inhibition at 10 µM (IL-6 (THP-1 cells)) [%]
5.59,5.05,5.76,"CC(C)Nc1cncc(-c2ccc3[nH]nc(-c4nc5c(-c6cccnc6)cccc5[nH]4)c3n2)c1 [Compound 96, N-Isopropyl-5-(3-(4-(pyridin-3-yl)-1H-benzo[d]imidazol-2-yl)-1H-pyrazolo [4,3-b]pyridin-5-yl)pyridin-3-amine]",,,
< 5.00,< 5.00,< 5.00,"Fc1ccc(-c2cccc3[nH]c(-c4n[nH]c5ccc(-c6cncnc6)nc45)nc23)cc1 [Compound 55, 3-(4-(4-Fluorophenyl)-1H-benzo[d]imidazol-2-yl)-5-(pyrimidin-5-yl)-1H-pyrazolo[4,3-b]pyridine]",6.5,4.1,38.8
5.34,5.23,< 5.00,"COc1cccc(-c2cccc3[nH]c(-c4n[nH]c5ccc(-c6cccnc6)nc45)nc23)c1 [Compound 994, 3-(4-(3-Methoxyphenyl)-1H-benzo[d]imidazol-2-yl)-5-(pyridin-3-yl)-1H-pyrazolo[4,3-b]pyridine]",,,32.2

SMILES,pEC50 [1],pEC50 (SW480 colon cancer cells),pEC50 (IL-6 (THP-1 cells)),"inhibition at 10 µM [1, 2] [%]",inhibition at 10 µM (SW480 colon cancer cells; [2]) [%],inhibition at 10 µM (IL-6 (THP-1 cells)) [%]
"C1=C(c2ccc3[nH]nc(-c4nc5c(-c6ccc7c(c6)OCO7)cccc5[nH]4)c3n2)CCNC1 [Compound 1109, 3-(4-(Benzo[d][1,3]dioxol-5-yl)-1H-benzo[d]imidazol-2-yl)-5-(1,2,3,6-tetrahydropyridin-4-yl)-1H-pyrazolo[4,3-b]pyridine]",5.96,5.91,5.23,,,
